According to patent US20090253785A1, “Bactericide composition” (priority 2007, published 2009):

Columns and labels:
Assay type in all cases: cell-based
[1] = system: Escherichia coli (E. coli); assay: Quantitative test of bacterial suspension, E. coli; details: for Anti-bacteria ratio / Remaining bacteria: E. coli, incubated 24 hours
Procedure: (§1) S. aureus, E. coli, MRSA and P. acnes were respectively prepared to form a suspension. The concentration of the suspension was about 1.5×10^8 CFU/ml (density=0.5 McFarland), and then was diluted 100 times (about 1.5×10^6 CFU/ml).
(§2) L-ascorbic acid solutions were prepared respectively in concentrations of 1 wt %, 5 wt %, 10 wt %, 15 wt %, 20 wt %, 25 wt % and 30 wt %. The different concentrations of L-ascorbic acid solutions were used as a test. A hydrochloric acid solution and distilled water were used respectively as a positive control and a negative control, and the pH value of the hydrochloric acid solution was the same of the pH value of the 25 wt % L-ascorbic acid solution.
(§3) 1 ml bacterial suspension was added to a 9 ml L-ascorbic acid solution for testing, and equal amounts of the bacterial suspension were added respectively to the positive control of 9 ml hydrochloric acid solution and the negative control of 9 ml distilled water, and then all solutions were incubated for 24 hours.
(§4) After incubating for 24 hours, all the solutions were series diluted, until diluted 1000 times to form a series of dilution solutions.
(§5) To calculate bacteria remaining in the solutions, 0.2 ml of each series of dilution solutions were cultured respectively on Petri dishes and repeated twice.
(§6) Each Petri dish was cultured in an incubator at 35±2° C. for 1˜2 days (S. aureus, E. coli) or for 2˜4 days (MRSA and P. acnes) to observe bacteria growth on Petri dish and the bacteria were counted.
(§7) Anti-bacterial ratio (%)=[(remaining bacteria of controls−remaining bacteria of test)/remaining bacteria of controls]×100%

[2] = system: Staphylococcus aureus (S. aureus); assay: Quantitative test of bacterial suspension, S. aureus; details: for Anti-bacteria ratio / Remaining bacteria: S. aureus, incubated 24 hours
Procedure: as §1, §2, §3, §4, §5, §6, §7

[3] = system: Propionibacterium acnes (P. acnes); assay: Quantitative test of bacterial suspension, P. acnes; details: for Anti-bacteria ratio / Remaining bacteria: P. acnes, incubated 24 hours
Procedure: as §1, §2, §3, §4, §5, §6, §7

[4] = system: Methicillin-resistant Staphylococcus aureus (MRSA); assay: Quantitative test of bacterial suspension, MRSA; details: for Anti-bacteria ratio / Remaining bacteria: MRSA, incubated 24 hours
Procedure: as §1, §2, §3, §4, §5, §6, §7

[5] = positive control solution, pH 1.68
[6] = 1 wt % to 30 wt % solution, incubating for 24 hours

Cl [Hydrochloric acid, reference compound]
Anti-bacteria ratio [1, 5]: 100%
Remaining bacteria [1, 5]: 0 CFU/mL
Anti-bacteria ratio [2, 5]: 99.99%
Remaining bacteria [2, 5]: 18 CFU/mL

O=C1O[C@H]([C@@H](O)CO)C(O)=C1O [L-ascorbic acid]
remaining P. acnes found in the Petri dishes [3, 6]: no remaining
Anti-bacteria ratio ([3]; 1% solution, pH 2.70): 100%
Remaining bacteria ([3]; 1% solution, pH 2.70): 0 CFU/mL
Anti-bacteria ratio ([3]; 5% solution, pH 2.28): 100%
Remaining bacteria ([3]; 5% solution, pH 2.28): 0 CFU/mL
Anti-bacteria ratio ([3]; 10% solution, pH 2.05): 100%
Remaining bacteria ([3]; 10% solution, pH 2.05): 0 CFU/mL
Anti-bacteria ratio ([3]; 15% solution, pH 1.93): 100%
Remaining bacteria ([3]; 15% solution, pH 1.93): 0 CFU/mL
Anti-bacteria ratio ([3]; 20% solution, pH 1.80): 100%
Remaining bacteria ([3]; 20% solution, pH 1.80): 0 CFU/mL
Anti-bacteria ratio ([3]; 25% solution, pH 1.68): 100%
Remaining bacteria ([3]; 25% solution, pH 1.68): 0 CFU/mL
Anti-bacteria ratio ([3]; 30% solution, pH 1.59): 100%
Remaining bacteria ([3]; 30% solution, pH 1.59): 0 CFU/mL
remaining E. coli found in the Petri dishes [1, 6]: no remaining
Anti-bacteria ratio ([1]; 1% solution, pH 2.70): 100%
Remaining bacteria ([1]; 1% solution, pH 2.70): 0 CFU/mL
Anti-bacteria ratio ([1]; 5% solution, pH 2.28): 100%
Remaining bacteria ([1]; 5% solution, pH 2.28): 0 CFU/mL
Anti-bacteria ratio ([1]; 10% solution, pH 2.05): 100%
Remaining bacteria ([1]; 10% solution, pH 2.05): 0 CFU/mL
Anti-bacteria ratio ([1]; 15% solution, pH 1.93): 100%
Remaining bacteria ([1]; 15% solution, pH 1.93): 0 CFU/mL
Anti-bacteria ratio ([1]; 20% solution, pH 1.80): 100%
Remaining bacteria ([1]; 20% solution, pH 1.80): 0 CFU/mL
Anti-bacteria ratio ([1]; 25% solution, pH 1.68): 100%
Remaining bacteria ([1]; 25% solution, pH 1.68): 0 CFU/mL
Anti-bacteria ratio ([1]; 30% solution, pH 1.59): 100%
Remaining bacteria ([1]; 30% solution, pH 1.59): 0 CFU/mL
remaining MRSA found ([4]; 5 wt % to 30 wt % solution, incubating for 24 hours): no remaining
Anti-bacteria ratio ([4]; 1% solution, pH 2.70): 99.99%
Remaining bacteria ([4]; 1% solution, pH 2.70): 2.0 × 10^3 CFU/mL
Anti-bacteria ratio ([4]; 5% solution, pH 2.28): 100%
Remaining bacteria ([4]; 5% solution, pH 2.28): 0 CFU/mL
Anti-bacteria ratio ([4]; 10% solution, pH 2.05): 100%
Remaining bacteria ([4]; 10% solution, pH 2.05): 0 CFU/mL
Anti-bacteria ratio ([4]; 15% solution, pH 1.93): 100%
Remaining bacteria ([4]; 15% solution, pH 1.93): 0 CFU/mL
Anti-bacteria ratio ([4]; 20% solution, pH 1.80): 100%
Remaining bacteria ([4]; 20% solution, pH 1.80): 0 CFU/mL
Anti-bacteria ratio ([4]; 25% solution, pH 1.68): 100%
Remaining bacteria ([4]; 25% solution, pH 1.68): 0 CFU/mL
Anti-bacteria ratio ([4]; 30% solution, pH 1.59): 100%
Remaining bacteria ([4]; 30% solution, pH 1.59): 0 CFU/mL
remaining S. aureus found ([2]; 15 wt % to 30 wt % solution, incubating for 24 hours): no remaining
Anti-bacteria ratio ([2]; 1% solution, pH 2.70): 99.72%
Remaining bacteria ([2]; 1% solution, pH 2.70): 2.5 × 10^4 CFU/mL
Anti-bacteria ratio ([2]; 5% solution, pH 2.28): 99.97%
Remaining bacteria ([2]; 5% solution, pH 2.28): 3.0 × 10^3 CFU/mL
Anti-bacteria ratio ([2]; 10% solution, pH 2.05): 99.99%
Remaining bacteria ([2]; 10% solution, pH 2.05): 2.0 × 10^2 CFU/mL
Anti-bacteria ratio ([2]; 15% solution, pH 1.93): 100%
Remaining bacteria ([2]; 15% solution, pH 1.93): 0 CFU/mL
Anti-bacteria ratio ([2]; 20% solution, pH 1.80): 100%
Remaining bacteria ([2]; 20% solution, pH 1.80): 0 CFU/mL
Anti-bacteria ratio ([2]; 25% solution, pH 1.68): 100%
Remaining bacteria ([2]; 25% solution, pH 1.68): 0 CFU/mL
Anti-bacteria ratio ([2]; 30% solution, pH 1.59): 100%
Remaining bacteria ([2]; 30% solution, pH 1.59): 0 CFU/mL
